Experimental data taken from US10752593B2, “Compounds for use as therapeutically active substances in the treatment of retinal diseases” (ENDOGENA THERAPEUTICS, INC., priority 2018, dated 2020).

Test system: retinal precursor cells
Experiment: Sphere passaging and high-throughput drug screening: proliferation of retinal precursor cells within one week
Type: cell-based, mammalian
Details: retinal precursor cells grown one week with compound in 0.1% DMSO, control without compound = 100
Description: Kynurenic Acid (0.2 mg/mL), trypsin (1.33 mg/mL), and hyaluronidase (0.67 mg/mL) were weighed out and dissolved in high magnesium/low calcium artificial cerebral spinal fluid (aCSF) at 37° C. Fibroblast growth factor 2 (FGF2; 10 ng/mL) and heparin (2 μg/mL) were added to 100 mL of serum-free media (SFM). Ovomucoid trypsin inhibitor (1 mg/mL) was dissolved in warm SFM and sterile filtered ([…]).
A dissecting microscope, cold light source, and sterile surgical instruments were set up inside of a sterile biological safety cabinet (BSC). Mammalian eyes were enucleated and placed in a petri dish containing cold, sterile aCSF. Under the dissecting microscope, hair, connective tissue, and the dorsal and ventral oblique muscles were cleared from the scleral/corneal border with two sets of forceps. Next, curved or angled micro-dissecting scissors were used to cleave any remaining extraocular muscle tissue, the optic nerve, and cut the eyeball into symmetrical halves; beginning and finishing the cut from the hole left by the optic nerve. Using two sets of forceps to grasp the cornea, the two eye halves were peeled apart. The lens, optic nerve, and vitreous were separated from the eye shells and the eye shells were transferred into a new petri dish (also containing cold, sterile aCSF). To isolate the ciliary epithelium (CE), eye shells were oriented with the cornea on the right and retinal pigmented epithelium (RPE) on the left. A pair of straight forceps were used to pin down the eye shell on the RPE side while a scalpel blade was inserted between the CE and the iris, using pressure to slice the iris/cornea side off from the rest of the shell. Next, the scalpel was run along the border between the CE and the RPE to obtain the CE isolated as a thin strip of tissue. The CE strips were then transferred to a 35 mm dish containing 2 mL of dispase solution (Sigma; T1005) and incubated for 10 minutes at 37° C. Next, the strips were transferred from dispase into a 35 mm dish containing 2 mL of sterile filtered kynurenic acid, trypsin and hyaluronidase solution and incubated at 37° C. for 10 minutes. After incubation, the dish was returned to the dissecting scope, and the CE strips were pinned down with straight, non-serrated forceps, while non-serrated curved forceps were used to scrape the CE off from the underlying sclera. The bare scleral strips were then discarded, such that only the CE cells remained in the enzyme solution. Using a fire-polished, cotton-plugged glass pipette, the cells and enzyme solution were transferred to a 15 mL tube and triturated approximately 45 times to break apart the tissue. The 15 mL tube/cell suspension was centrifuged for 5 minutes at 1500 rpm. The supernatant was gently aspirated from the resulting pellet using a fire-polished, cotton-plugged glass pipette and 2 mL of trypsin inhibitor solution was added to the pellet. Using a small borehole, fire-polished, cotton-plugged glass pipette, the sample was triturated approximately 45 times until it was a single-cell suspension. The 15 mL tube/cell suspension was centrifuged for 5 minutes at 1500 rpm. The supernatant was gently aspirated from the resulting pellet and 1-2 mL of SFM with FGF2 and heparin (plating media) was added. The cells and media were mixed to ensure a uniform cell suspension and a 10 uL sample was taken and cell density was determined. The cells were then seeded and cultured at 10c/μL in culture-treated plates or flasks. After one week, roughly 1 in 500 cells proliferated to form free-floating, clonal spheres greater than 80 μm in diameter.
Human-derived spheres were passaged using the kynurenic acid, trypsin, hyaluronidase enzyme solution with the addition of collagenase I (0.5 mg/mL), collagenase II (0.5 mg/mL) and elastase (0.1 mg/mL). Mouse-derived spheres were passaged using hyaluronidase (0.67 mg/mL), collagenase I (0.5 mg/mL), and collagenase II (0.5 mg/mL) dissolved in Accustase solution (Sigma; SCR005). […]

[1] = results table after the methods

Compound	Cell proliferation within one week [%] [1]	Cell proliferation within one week [%] (concentration not given)
O=C(Cc1ccc(Cl)cc1)Nc1ccc(-c2cnco2)c(Cl)c1 [Compound E1019, N-(3-chloro-4-(oxazol-5-yl)phenyl)-2-(4-chlorophenyl)acetamide]	133%	133%
O=C(Cc1ccccc1)Nc1ccc(-c2cnco2)c(F)c1 [Compound E1031, N-(3-fluoro-4-(oxazol-5-yl)phenyl)-2-phenylacetamide]	123%	123%
COc1cc(NC(=O)Cc2ccccc2C(F)(F)F)ccc1-c1ccncc1 [Compound E1071, N-(3-methoxy-4-(pyridin-4-yl)phenyl)-2-(2-(trifluoromethyl)phenyl)acetamide]	113%	
COc1cc(NC(=O)Cc2cccc(C(F)(F)F)c2)ccc1-c1ccncc1 [Compound E1070, N-(3-methoxy-4-(pyridin-4-yl)phenyl)-2-(3-(trifluoromethyl)phenyl)acetamide]	106%	
O=C(Cc1cc(F)ccc1Cl)Nc1ccc(-c2cnco2)c(Cl)c1 [Compound E1017, N-(3-chloro-4-(oxazol-5-yl)phenyl)-2-(2-chloro-5-fluorophenyl)acetamide]	121%	121%
O=C(Cc1ccccc1Cl)Nc1ccc(-c2cnco2)c(F)c1 [Compound E1032, 2-(2-chlorophenyl)-N-(3-fluoro-4-(oxazol-5-yl)phenyl)acetamide]	137%	137%
